In doi:10.1101/2021.09.30.462449v1 (biorxiv, 2021):

What was measured:
Assay in all cases: biochemical
Details in all cases: read-out: % inhibition mean (Lanthascreen)
[1] = target: ANKK1 (Homo sapiens, UniProt Q8NFD2)
[2] = target: ABL1 M351T (Homo sapiens, UniProt P00519, M351T)
[3] = target: CDK14 (PFTK1)/cyclin Y (Homo sapiens, UniProt O94921)
[4] = target: RET G691S (Homo sapiens, UniProt P07949, G691S)
[5] = target: EPHA3 (Homo sapiens, UniProt P29320)
[6] = target: CASK (Homo sapiens, UniProt O14936)
[7] = target: TNK2 (ACK) (Homo sapiens, UniProt Q07912)
[8] = target: TLK1 (Homo sapiens, UniProt Q9UKI8)
[9] = target: EPHA7 (Homo sapiens, UniProt Q15375)
[10] = target: PRKACG (PRKAC gamma) (Homo sapiens, UniProt P22612)
PRKACG (PRKAC gamma), sequence (P22612 whole entry): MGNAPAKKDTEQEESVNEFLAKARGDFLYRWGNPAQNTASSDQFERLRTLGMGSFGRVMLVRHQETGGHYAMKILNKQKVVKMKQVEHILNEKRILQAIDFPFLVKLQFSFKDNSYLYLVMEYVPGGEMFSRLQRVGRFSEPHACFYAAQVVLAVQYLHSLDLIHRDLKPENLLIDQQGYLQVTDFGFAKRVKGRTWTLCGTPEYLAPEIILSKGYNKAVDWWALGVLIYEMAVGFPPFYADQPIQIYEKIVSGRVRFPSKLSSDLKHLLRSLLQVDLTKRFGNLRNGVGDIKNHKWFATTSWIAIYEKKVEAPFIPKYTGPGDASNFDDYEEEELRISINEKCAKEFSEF

[11] = target: WNK2 (Homo sapiens, UniProt Q9Y3S1)
[12] = target: MYLK (MLCK) (Homo sapiens, UniProt Q15746)
MYLK (MLCK), sequence (Q15746 whole entry): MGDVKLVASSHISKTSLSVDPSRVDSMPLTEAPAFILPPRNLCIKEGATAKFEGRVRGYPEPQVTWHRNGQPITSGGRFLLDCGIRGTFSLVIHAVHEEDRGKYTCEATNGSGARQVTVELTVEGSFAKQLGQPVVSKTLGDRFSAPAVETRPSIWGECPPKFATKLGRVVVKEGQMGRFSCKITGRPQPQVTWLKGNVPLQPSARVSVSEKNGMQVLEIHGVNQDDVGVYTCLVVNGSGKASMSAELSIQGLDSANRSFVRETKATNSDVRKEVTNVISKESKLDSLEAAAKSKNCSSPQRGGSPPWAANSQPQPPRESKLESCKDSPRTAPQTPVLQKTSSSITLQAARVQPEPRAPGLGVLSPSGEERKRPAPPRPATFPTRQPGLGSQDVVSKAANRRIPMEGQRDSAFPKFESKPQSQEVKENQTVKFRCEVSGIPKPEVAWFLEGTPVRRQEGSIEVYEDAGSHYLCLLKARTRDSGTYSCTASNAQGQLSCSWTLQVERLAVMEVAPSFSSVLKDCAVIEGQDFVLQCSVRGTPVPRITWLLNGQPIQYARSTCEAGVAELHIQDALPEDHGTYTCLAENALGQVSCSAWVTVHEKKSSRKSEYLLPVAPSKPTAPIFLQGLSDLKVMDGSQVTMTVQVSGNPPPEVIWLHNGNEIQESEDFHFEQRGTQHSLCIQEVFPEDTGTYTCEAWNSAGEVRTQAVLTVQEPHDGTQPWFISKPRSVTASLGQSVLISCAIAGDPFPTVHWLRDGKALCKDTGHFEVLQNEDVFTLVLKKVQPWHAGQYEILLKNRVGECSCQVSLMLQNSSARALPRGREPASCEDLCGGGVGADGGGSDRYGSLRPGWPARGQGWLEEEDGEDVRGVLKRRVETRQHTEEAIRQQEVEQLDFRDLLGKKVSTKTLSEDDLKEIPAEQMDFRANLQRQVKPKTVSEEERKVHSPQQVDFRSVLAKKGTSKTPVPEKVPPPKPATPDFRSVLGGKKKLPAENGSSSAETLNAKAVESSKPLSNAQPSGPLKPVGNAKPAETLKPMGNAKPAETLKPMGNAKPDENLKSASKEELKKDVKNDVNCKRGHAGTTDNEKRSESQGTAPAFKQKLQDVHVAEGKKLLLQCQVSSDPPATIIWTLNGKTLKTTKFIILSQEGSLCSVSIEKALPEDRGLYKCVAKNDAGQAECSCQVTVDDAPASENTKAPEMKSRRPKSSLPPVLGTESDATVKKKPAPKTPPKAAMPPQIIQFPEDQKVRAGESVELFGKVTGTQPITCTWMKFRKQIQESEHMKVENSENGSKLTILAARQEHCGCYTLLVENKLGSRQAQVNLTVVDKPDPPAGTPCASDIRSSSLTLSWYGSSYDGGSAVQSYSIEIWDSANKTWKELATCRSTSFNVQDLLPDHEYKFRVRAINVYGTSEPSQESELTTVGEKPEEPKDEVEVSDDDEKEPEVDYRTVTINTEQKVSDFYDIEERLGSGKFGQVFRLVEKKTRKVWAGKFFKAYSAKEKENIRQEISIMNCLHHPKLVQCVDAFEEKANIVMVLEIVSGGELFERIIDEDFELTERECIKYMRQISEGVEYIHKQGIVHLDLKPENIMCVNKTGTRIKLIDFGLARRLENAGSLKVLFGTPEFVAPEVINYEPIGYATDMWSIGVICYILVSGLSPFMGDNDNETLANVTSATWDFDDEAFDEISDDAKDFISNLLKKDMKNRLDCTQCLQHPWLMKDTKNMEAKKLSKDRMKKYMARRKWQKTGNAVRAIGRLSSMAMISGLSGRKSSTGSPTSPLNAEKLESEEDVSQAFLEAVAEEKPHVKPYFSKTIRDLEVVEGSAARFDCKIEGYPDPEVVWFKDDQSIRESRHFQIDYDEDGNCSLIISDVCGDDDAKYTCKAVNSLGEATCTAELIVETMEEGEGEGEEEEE

[13] = target: MASTL (Homo sapiens, UniProt Q96GX5)
[14] = target: ERN2 (Homo sapiens, UniProt Q76MJ5)
[15] = target: CDK13/cyclin K (Homo sapiens, UniProt Q14004)
[16] = target: ADCK3 (Homo sapiens, UniProt Q8NI60)
[17] = target: HUNK (Homo sapiens, UniProt P57058)
[18] = target: MAP2K4 (MEK4) (Homo sapiens, UniProt P45985)
[19] = target: BRSK2 (Homo sapiens, UniProt Q8IWQ3)
BRSK2, sequence (Q8IWQ3 whole entry): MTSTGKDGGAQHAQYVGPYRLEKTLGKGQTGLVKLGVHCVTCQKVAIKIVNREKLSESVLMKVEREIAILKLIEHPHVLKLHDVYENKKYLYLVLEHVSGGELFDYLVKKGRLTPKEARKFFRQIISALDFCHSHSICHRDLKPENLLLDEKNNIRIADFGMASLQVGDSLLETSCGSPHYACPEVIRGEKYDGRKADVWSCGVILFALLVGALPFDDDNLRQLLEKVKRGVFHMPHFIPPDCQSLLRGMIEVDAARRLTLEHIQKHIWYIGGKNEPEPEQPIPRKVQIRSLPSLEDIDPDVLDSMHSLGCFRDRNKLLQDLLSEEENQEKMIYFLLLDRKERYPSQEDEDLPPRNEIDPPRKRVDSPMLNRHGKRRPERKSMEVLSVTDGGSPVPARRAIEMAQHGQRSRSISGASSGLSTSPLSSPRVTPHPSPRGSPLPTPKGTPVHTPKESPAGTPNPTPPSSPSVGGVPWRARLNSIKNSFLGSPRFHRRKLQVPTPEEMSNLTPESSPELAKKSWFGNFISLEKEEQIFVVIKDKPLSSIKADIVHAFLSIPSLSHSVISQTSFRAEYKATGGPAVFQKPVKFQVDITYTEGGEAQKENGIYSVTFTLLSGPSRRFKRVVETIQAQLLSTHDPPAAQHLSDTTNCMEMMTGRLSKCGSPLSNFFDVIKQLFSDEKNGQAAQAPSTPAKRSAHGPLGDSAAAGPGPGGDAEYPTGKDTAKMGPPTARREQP

[20] = target: EIF2AK2 (PKR) (Homo sapiens, UniProt P19525)
[21] = target: PRKACB (PRKAC beta) (Homo sapiens, UniProt P22694)
[22] = target: MAP3K14 (NIK) (Homo sapiens, UniProt Q99558)
MAP3K14 (NIK), sequence (Q99558 whole entry): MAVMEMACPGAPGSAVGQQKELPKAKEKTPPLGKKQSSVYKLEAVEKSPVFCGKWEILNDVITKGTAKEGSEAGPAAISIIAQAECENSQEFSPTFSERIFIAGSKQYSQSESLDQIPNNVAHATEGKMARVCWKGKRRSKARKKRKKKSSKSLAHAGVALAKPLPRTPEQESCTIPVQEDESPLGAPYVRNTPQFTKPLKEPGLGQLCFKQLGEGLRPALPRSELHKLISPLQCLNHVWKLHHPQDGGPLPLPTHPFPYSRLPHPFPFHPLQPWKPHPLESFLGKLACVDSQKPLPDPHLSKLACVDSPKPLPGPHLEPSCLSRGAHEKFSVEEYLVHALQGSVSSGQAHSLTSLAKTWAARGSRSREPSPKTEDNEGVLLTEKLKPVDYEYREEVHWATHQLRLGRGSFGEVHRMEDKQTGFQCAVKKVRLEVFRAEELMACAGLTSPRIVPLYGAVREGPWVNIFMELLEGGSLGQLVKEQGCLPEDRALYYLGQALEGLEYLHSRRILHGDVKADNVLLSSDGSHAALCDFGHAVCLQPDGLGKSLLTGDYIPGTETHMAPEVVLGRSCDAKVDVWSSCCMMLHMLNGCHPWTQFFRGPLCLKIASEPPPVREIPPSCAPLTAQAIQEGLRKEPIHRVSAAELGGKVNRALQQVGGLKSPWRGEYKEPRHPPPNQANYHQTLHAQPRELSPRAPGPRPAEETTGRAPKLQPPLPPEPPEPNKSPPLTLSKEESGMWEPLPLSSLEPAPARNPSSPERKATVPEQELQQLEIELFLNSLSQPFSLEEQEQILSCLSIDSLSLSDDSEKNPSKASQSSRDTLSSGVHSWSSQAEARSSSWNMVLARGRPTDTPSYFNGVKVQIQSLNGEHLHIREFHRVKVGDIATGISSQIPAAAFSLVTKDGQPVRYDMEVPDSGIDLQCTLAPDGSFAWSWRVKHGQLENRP

[23] = target: DDR1 (Homo sapiens, UniProt Q08345)
[24] = target: CDK16 (PCTK1)/cyclin Y (Homo sapiens, UniProt Q00536)
[25] = target: RET M918T (Homo sapiens, UniProt P07949, M918T)
[26] = target: RET V804M (Homo sapiens, UniProt P07949, V804M)
[27] = target: TEK (TIE2) Y1108F (Homo sapiens, UniProt Q02763, Y1108F)
TEK (TIE2) Y1108F, sequence (Q02763 whole entry Y1108F): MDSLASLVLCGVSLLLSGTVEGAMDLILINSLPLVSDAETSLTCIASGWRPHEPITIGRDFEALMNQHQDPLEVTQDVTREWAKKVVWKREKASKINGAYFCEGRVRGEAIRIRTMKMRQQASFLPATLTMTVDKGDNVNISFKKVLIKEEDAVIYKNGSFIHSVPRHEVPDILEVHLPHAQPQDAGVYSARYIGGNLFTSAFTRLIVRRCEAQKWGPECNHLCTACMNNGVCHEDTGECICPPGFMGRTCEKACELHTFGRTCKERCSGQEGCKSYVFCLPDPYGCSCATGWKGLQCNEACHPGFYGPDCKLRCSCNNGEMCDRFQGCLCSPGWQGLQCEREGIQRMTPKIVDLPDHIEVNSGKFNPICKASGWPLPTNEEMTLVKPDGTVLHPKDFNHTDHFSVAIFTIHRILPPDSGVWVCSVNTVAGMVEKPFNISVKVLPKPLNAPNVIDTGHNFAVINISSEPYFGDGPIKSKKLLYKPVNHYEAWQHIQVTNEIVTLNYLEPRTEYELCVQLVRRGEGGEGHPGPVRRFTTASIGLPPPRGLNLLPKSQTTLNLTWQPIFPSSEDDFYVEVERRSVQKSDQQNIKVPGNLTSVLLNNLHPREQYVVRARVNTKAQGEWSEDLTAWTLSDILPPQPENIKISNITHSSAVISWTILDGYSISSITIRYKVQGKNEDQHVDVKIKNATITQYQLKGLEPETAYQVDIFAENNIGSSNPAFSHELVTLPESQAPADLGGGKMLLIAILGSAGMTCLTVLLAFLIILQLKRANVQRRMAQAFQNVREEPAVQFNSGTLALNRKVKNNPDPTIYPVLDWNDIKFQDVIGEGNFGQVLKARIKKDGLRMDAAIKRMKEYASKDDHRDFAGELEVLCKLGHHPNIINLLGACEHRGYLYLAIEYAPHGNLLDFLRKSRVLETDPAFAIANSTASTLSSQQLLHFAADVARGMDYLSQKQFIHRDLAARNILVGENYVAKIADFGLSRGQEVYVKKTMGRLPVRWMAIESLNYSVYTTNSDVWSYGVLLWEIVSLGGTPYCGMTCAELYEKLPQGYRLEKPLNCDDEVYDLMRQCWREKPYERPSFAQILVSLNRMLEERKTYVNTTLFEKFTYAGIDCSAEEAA

[28] = target: CDK8/cyclin C (Homo sapiens, UniProt P49336)
[29] = target: ALK R1275Q (Homo sapiens, UniProt Q9UM73, R1275Q)

Which inhibition at 1 µM [1] does the source give for `COc1ccc2nc3cc(Cl)ccc3c(Nc3cc(CN4CCCC4)c(O)c(CN4CCCC4)c3)c2n1` [Pyronaridine, 4-[(7-Chloro-2-methoxybenzo[b][1,5]naphthyridin-10-yl)amino]-2,6-bis(1-pyrrolidinylmethyl)phenol phosphate (1:4)] here?
Its inhibition at 1 µM is -2%.

And the inhibition at 1 µM [2]?
The inhibition at 1 µM was 8%.

And the inhibition at 1 µM [3]?
The inhibition at 1 µM was 14%.

What about the inhibition at 1 µM [4] of the same molecule?
The inhibition at 1 µM was -3%.

What about the inhibition at 1 µM [5] of the same molecule?
Its inhibition at 1 µM is 11%.

And the inhibition at 1 µM [6]?
The inhibition at 1 µM was 2%.

What about the inhibition at 1 µM [7] of the same molecule?
The inhibition at 1 µM was 1%.

And the inhibition at 1 µM [8]?
The inhibition at 1 µM was 12%.

And the inhibition at 1 µM [9]?
The inhibition at 1 µM was -3%.

What about the inhibition at 1 µM [10] of the same molecule?
The inhibition at 1 µM was 2%.

And the inhibition at 1 µM [11]?
The inhibition at 1 µM was 4%.

What about the inhibition at 1 µM [12] of the same molecule?
Its inhibition at 1 µM is 4%.

And the inhibition at 1 µM [13]?
The inhibition at 1 µM was 3%.

What about the inhibition at 1 µM [14] of the same molecule?
The inhibition at 1 µM was 6%.

What about the inhibition at 1 µM [15] of the same molecule?
Its inhibition at 1 µM is -13%.

What about the inhibition at 1 µM [16] of the same molecule?
Its inhibition at 1 µM is -16%.

And the inhibition at 1 µM [17]?
Its inhibition at 1 µM is -1%.

What about the inhibition at 1 µM [18] of the same molecule?
Its inhibition at 1 µM is 1%.

And the inhibition at 1 µM [19]?
The inhibition at 1 µM was 4%.

And the inhibition at 1 µM [20]?
The inhibition at 1 µM was 4%.

And the inhibition at 1 µM [21]?
Its inhibition at 1 µM is 12%.

What about the inhibition at 1 µM [22] of the same molecule?
The inhibition at 1 µM was 2%.

And the inhibition at 1 µM [23]?
Its inhibition at 1 µM is -2%.

And the inhibition at 1 µM [24]?
Its inhibition at 1 µM is -12%.

And the inhibition at 1 µM [25]?
Its inhibition at 1 µM is -3%.

And the inhibition at 1 µM [26]?
The inhibition at 1 µM was -1%.

What about the inhibition at 1 µM [27] of the same molecule?
Its inhibition at 1 µM is -2%.

And the inhibition at 1 µM [28]?
The inhibition at 1 µM was 3%.

What about the inhibition at 1 µM [29] of the same molecule?
Its inhibition at 1 µM is 6%.
